Results: patent publication US20150079000A1, “Labelled Quinoxaline Derivatives as Multimodal Radiopharmaceuticals and Their Precursors” (INSTITUT NATIONAL DE LA SANTET DE LA RECHERCHE MEDICALE, priority 2012, published 2015)

Test: Metabolism of compound [125I](1)
Assay type: in vivo, mice
Description: 24 primary melanoma bearing mice were intravenously injected with 2.2 MBq of [^1251](1) and sacrificed 1 h, 3 h, 6 h, 24 h, 72 h and 10 days after tracer injection. To determine the metabolic stability of [^1251](1), blood, tumour, eyes, liver, kidney and urine samples were collected at each time point […]. Faeces were collected between 0-24 h and 24-48 h. Blood was immediately diluted in 5 mL of methanol/NH4OH 99.8:0.2 and centrifuged for 5 min at 3,000 rpm. Tumour, eyes, liver, kidneys and faeces were suspended in 5 mL of methanol/NH4OH 99.8:0.2, homogenized using GentleMACS™ dissociator (Miltenyi Biotec, Bergisch Gladbach, Germany) and centrifuged for 5 min at 3,000 rpm (repeated 2 times). Urines were analysed without any treatment. The extraction efficiency was determined by measuring the radioactivity of supernatants and precipitates. Supernatants were passed through a 0.22 μm Millipore filter and then concentrated to a volume between 200 and 500 μL before injection (duplicate) onto the analytical HPLC(C18 column; solvent A: H2O (0.2% NH4OH); solvent B: MeOH (0.2% NH4OH); Gradient elution: 0-5 min: 90 to 70% of A (Q=0.5 mL·min^−1); 5-30 min: 70 to 20% of A (Q=0.9 mL·min^−1); 30-32 min: 10% of A (Q=0.9 mL·min^−1)).

[1] = Feces, (grid: 3 h; faeces collected 24-48 h)
[2] = Feces, first value column (grid: 1 h; faeces collected 0-24 h)
[3] = Urine, 1 h after [125I](1) injection
[4] = Urine, 3 h after [125I](1) injection
[5] = Urine, 6 h after [125I](1) injection
[6] = Urine, 24 h after [125I](1) injection
[7] = Urine, 72 h after [125I](1) injection
[8] = Blood, 1 h after [125I](1) injection
[9] = Blood, 3 h after [125I](1) injection
[10] = Blood, 6 h after [125I](1) injection
[11] = Kidney, 1 h after [125I](1) injection
[12] = Kidney, 3 h after [125I](1) injection
[13] = Kidney, 6 h after [125I](1) injection
[14] = Liver, 1 h after [125I](1) injection
[15] = Liver, 3 h after [125I](1) injection
[16] = Liver, 6 h after [125I](1) injection
[17] = Liver, 24 h after [125I](1) injection

| % of radioactivity [1] | % of radioactivity [2] | % of radioactivity [3] | % of radioactivity [4] | % of radioactivity [5] | % of radioactivity [6] | % of radioactivity [7] | % of radioactivity [8] | % of radioactivity [9] | % of radioactivity [10] | % of radioactivity [11] | % of radioactivity [12] | % of radioactivity [13] | % of radioactivity [14] | % of radioactivity [15] | % of radioactivity [16] | % of radioactivity [17] | SMILES | other results |
| --- | --- | --- | --- | --- | --- | --- | --- | --- | --- | --- | --- | --- | --- | --- | --- | --- | --- | --- |
| 3.5 ± 0.7% | 3.0 ± 0.0% | 30.3 ± 2.4% | 24.0 ± 0.0% | 21.0 ± 0.0% | 6.5 ± 0.7% | 0.0 ± 0.0% |  |  |  |  |  |  |  |  |  |  | O=C(O)CNC(=O)c1cnc2cc([125I])ccc2n1 [Acid [^125I]II] |  |
| 8.0 ± 1.4% | 7.5 ± 0.7% | 17.2 ± 3.1% | 20.0 ± 1.4% | 16.0 ± 1.4% | 3.5 ± 0.7% | 0.0 ± 0.0% | 21.5 ± 2.1% | 11.5 ± 0.7% | 11.0 ± 0.0% | 29.0 ± 1.4% | 34.2 ± 0.7% | 43.0 ± 1.4% |  |  |  |  | O=C(O)c1cnc2cc([125I])ccc2n1 [Acid [^125I]I] |  |
| 2.5 ± 0.7% | 6.5 ± 0.7% |  |  |  |  |  |  |  |  |  |  |  |  |  |  |  | CCNCCNC(=O)c1cnc2cc([125I])ccc2n1 [Amine [^125I]II] |  |
| 14.0 ± 0.0% | 16.0 ± 0.0% | 6.6 ± 0.6% | 13.0 ± 1.4% | 3.5 ± 4.9% | 0.0 ± 0.0% | 0.0 ± 0.0% |  |  |  | 18.5 ± 0.7% | 11.7 ± 0.7% | 0.0 ± 0.0% | 26.0 ± 0.0% | 45.5 ± 2.1% | 55.0 ± 2.8% | 70.5 ± 0.7% | NCCNC(=O)c1cnc2cc([125I])ccc2n1 [Amine [^125I]I] |  |
| 27.0 ± 1.4% | 8.0 ± 0.0% | 25.7 ± 3.2% | 30.5 ± 0.7% | 51.0 ± 4.2% | 85.0 ± 1.4% | 99.0 ± 0.0% | 76.5 ± 0.7% | 88.5 ± 0.7% | 85.5 ± 4.9% | 20.5 ± 0.7% | 37.2 ± 2.2% | 57.0 ± 1.4% | 20.0 ± 1.4% | 21.5 ± 4.9% | 29.5 ± 0.7% | 29.5 ± 0.7% | [125IH] [[^125I]I^−] | % of radioactivity (Eyes, 1 h after [125I](1) injection): 9.5 ± 0.7%; % of radioactivity (Eyes, 3 h after [125I](1) injection): 5.5 ± 2.1%; % of radioactivity (Eyes, 6 h after [125I](1) injection): 4.0 ± 5.7%; % of radioactivity (Eyes, 24 h after [125I](1) injection): 0.0 ± 0.0%; % of radioactivity (Eyes, 72 h after [125I](1) injection): 0.0 ± 0.0%; % of radioactivity (Eyes, 10 d after [125I](1) injection): 0.0 ± 0.0%; % of radioactivity (Tumour, 1 h after [125I](1) injection): 13.0 ± 1.4%; % of radioactivity (Tumour, 3 h after [125I](1) injection): 6.5 ± 0.7%; % of radioactivity (Tumour, 6 h after [125I](1) injection): 9.0 ± 0.0%; % of radioactivity (Tumour, 24 h after [125I](1) injection): 0.0 ± 0.0%; % of radioactivity (Tumour, 72 h after [125I](1) injection): 0.0 ± 0.0%; % of radioactivity (Tumour, 10 d after [125I](1) injection): 0.0 ± 0.0% |
